In patent publication US20190365843A1, “Antimicrobial Activity of Bioactive Compounds and Their Derivatives” (priority 2018, published 2019):

What was measured:
[1] = tested on: ETEC; test: Agar diffusion growth inhibition zone, ETEC; assay type: cell-based, Enterotoxigenic E. coli; details: for inhibition of growth: ETEC; for zone of inhibition at 100000 µg/disc / zone of inhibition at 150000 µg/disc: Escherichia coli
Procedure: (§7) Agar well diffusion method is widely used to evaluate the antimicrobial activity of plants or other synthetic products. The suspension (microbial inoculum) was used to inoculate into Muller Hinton Agar Petri plates by lawn culture. Well (diameter 6 mm) were punched in the agar by sterile borer and filled with 50 μl of dissolved extracts. Plates were incubated in incubator at 37° C. for 24 hours and measured the growth inhibition zone diameters in mm compared with that of control (DMSO) showing no growth. The antimicrobial agent diffuses in the agar medium and inhibits the growth of the microbial strain tested (Valgas et al., (2016) Methods for in vitro evaluating antimicrobial activity: A review. Journal of Pharmaceutical Analysis. 6(2):71-9).
(§8) Similar to the procedure used in Agar well diffusion method, the suspension (microbial inoculum) was used to inoculate into Muller Hinton Agar Petri plates by lawn culture. Then, filter paper discs (about 6 mm in diameter), containing the test compound at a desired concentration, were placed on the agar surface. The Petri dishes were incubated under suitable incubation conditions. Generally, antimicrobial agent diffuses into the agar and inhibits germination and growth of the test microorganism and then the diameters of inhibition growth zones are measured (Valgas et al., (2007) Screening methods to determine antibacterial activity of natural products. Brazilian Journal of Microbiology. 38:369-80; Balouiri M et al., (2016) Methods for in vitro evaluating antimicrobial activity: A review. Journal of Pharmaceutical Analysis. 6(2):71-9).

[2] = tested on: Candida abicans; test: Agar diffusion growth inhibition zone, Candida abicans; assay type: cell-based, Candida albicans; details: 6 mm = no activity
Procedure: (§1) Among the bacterial agents tested Gram positive and Gram negative bacterial groups represented by Staphylococcus aureus and Enterococcus species and pathogenic members of Enterobacteriaceae, Vibronaceae, Aeromonadaceae, Pseudomonadaceae were tested. Freshly sub-cultured bacterial strains were inoculated into peptone water and incubated for 4 hours at 37° C. and adjusted to a turbidity of 0.5 (Gram Negative Bacilli), 1 (Gram Positive Cocci) and 4 (Pus cells, GNB, & few Budding yeast cells) Mc Farland standards (10^8 CFU/ml) respectively.
(§2) The different bioactive compounds and their derivatives were dissolved and diluted with solvents (DMSO), number of subsequent dilutions was performed to obtain different concentrations of the bioactive compounds and their derivatives. (Working Concentrations).
(§3) Agar well diffusion method is widely used to evaluate the antimicrobial activity of plants or other synthetic products. The suspension (microbial inoculum) was used to inoculate into Muller Hinton Agar Petri plates by lawn culture. Well (diameter 6 mm) were punched in the agar by sterile borer and filled with 50 μl of dissolved extracts. Plates were incubated in incubator at 37° C. for 24 hours and measured the growth inhibition zone diameters in mm compared with that of control (DMSO) showing no growth.
(§4) The bioactive compounds were tested with desired concentrations in 6 mm filter paper discs (Whatman, no. 3) were impregnated with 10 μL of each of the different dilutions. The discs were allowed to remain at room temperature until complete diluent evaporation and kept under refrigeration until ready to be used. 10 μL of diluents used to products were used as control. Tests were performed by Agar disk-diffusion testing method, which is the official method used in many clinical microbiology laboratories for routine antimicrobial susceptibility testing.
(§5) Similar to the procedure used in Agar well diffusion method, the suspension (microbial inoculum) was used to inoculate into Muller Hinton Agar Petri plates by lawn culture. Then, filter paper discs (about 6 mm in diameter), containing the test compound at a desired concentration, were placed on the agar surface. The Petri dishes were incubated under suitable incubation conditions.
(§6) Bioactive compounds showing zone of inhibition beyond the size of 6 mm are considered to be having an anti-microbial activity.

[3] = tested on: Proteus sp.; test: Agar diffusion growth inhibition zone, Proteus sp.; assay type: cell-based, Proteus species; details: for zone of inhibition at 150 mg/mL: Proteus sp., 6 mm = no activity
Procedure: as §1, §2, §3, §4, §5, §6

[4] = tested on: Aeromonas sp.; test: Agar diffusion growth inhibition zone, Aeromonas sp.; assay type: cell-based, Aeromonas species; details: Aeromonas sp., 6 mm = no activity
Procedure: as §1, §2, §3, §4, §5, §6

[5] = tested on: EAEC; test: Agar diffusion growth inhibition zone, EAEC; assay type: cell-based, Enteroaggregative E. coli; details: for zone of inhibition at 100 mg/mL / zone of inhibition at 150 mg/mL: Escherichia coli, 6 mm = no activity
Procedure: as §1, §2, §3, §4, §5, §6

[6] = tested on: Pseudomonas sp.; test: Agar diffusion growth inhibition zone, Pseudomonas sp.; assay type: cell-based, Pseudomonas species; details: Pseudomonas
Procedure: as §7, §8

[7] = tested on: Klebsiella sp.; test: Agar diffusion growth inhibition zone, Klebsiella sp.; assay type: cell-based, Klebsiella species; details: 6 mm = no activity
Procedure: as §1, §2, §3, §4, §5, §6

[8] = tested on: Shigella sp.; test: Agar diffusion growth inhibition zone, Shigella sp.; assay type: cell-based, Shigella species; details: Shigella
Procedure: as §7, §8

[9] = tested on: S. aureus; test: Agar diffusion growth inhibition zone, S. aureus; assay type: cell-based, Staphylococcus aureus; details: for zone of inhibition at 100 mg/mL / zone of inhibition at 150 mg/mL: Staphylococcus aureus, 6 mm = no activity
Procedure: as §1, §2, §3, §4, §5, §6

[10] = tested on: Pleisiomonas sp.; test: Agar diffusion growth inhibition zone, Pleisiomonas sp.; assay type: cell-based, Pleisiomonas species; details: for zone of inhibition at 100 mg/mL / zone of inhibition at 150 mg/mL: Pleisiomonas sp., 6 mm = no activity
Procedure: as §1, §2, §3, §4, §5, §6

[11] = tested on: E. coli ATCC 25922; test: Agar diffusion growth inhibition zone, E. coli ATCC 25922; assay type: cell-based; details: Escherichia coli, 6 mm = no activity; for zone of inhibition at 100 mg/mL: ATCC25922, 100 mg; for zone of inhibition at 150 mg/mL: ATCC25922, 150 mg
Procedure: as §1, §2, §3, §4, §5, §6

[12] = tested on: Vibrio cholera; test: Agar diffusion growth inhibition zone, Vibrio cholera; assay type: cell-based, Vibrio cholerae; details: Vibrio cholerae
Procedure: as §7, §8

[13] = tested on: Citrobacter sp.; test: Agar diffusion growth inhibition zone, Citrobacter sp.; assay type: cell-based, Citrobacter species; details: 6 mm = no activity
Procedure: as §1, §2, §3, §4, §5, §6

[14] = tested on: Salmonella typhimurium; test: Agar diffusion growth inhibition zone, Salmonella typhimurium; assay type: cell-based; details: Salmonella enterica, 6 mm = no activity
Procedure: as §1, §2, §3, §4, §5, §6

[15] = tested on: Enterococcus sp.; test: Agar diffusion growth inhibition zone, Enterococcus sp.; assay type: cell-based, Enterococcus species; details: 6 mm = no activity
Procedure: as §1, §2, §3, §4, §5, §6

Structure (SMILES) | inhibition of growth [1] | zone of inhibition at 100000 µg/disc [1] [mm] | zone of inhibition at 150000 µg/disc [1] [mm] | zone of inhibition at 100 mg/mL [2] [mm] | zone of inhibition at 150 mg/mL [2] [mm] | zone of inhibition at 150 mg/mL [3] [mm] | zone of inhibition at 100 mg/mL [4] [mm] | zone of inhibition at 150 mg/mL [4] [mm] | zone of inhibition at 100 mg/mL [5] [mm] | zone of inhibition at 150 mg/mL [5] [mm] | zone of inhibition at 100000 µg/disc [6] [mm] | zone of inhibition at 150000 µg/disc [6] [mm] | zone of inhibition at 100 mg/mL [7] [mm] | zone of inhibition at 150 mg/mL [7] [mm] | zone of inhibition at 100000 µg/disc [8] [mm] | zone of inhibition at 150000 µg/disc [8] [mm] | zone of inhibition at 100 mg/mL [9] [mm] | zone of inhibition at 150 mg/mL [9] [mm] | zone of inhibition at 100 mg/mL [10] [mm] | zone of inhibition at 150 mg/mL [10] [mm] | other results
COc1cc(/C=C/C(=O)CC(=O)/C=C/c2ccc(OC(C)=O)c(OC)c2)ccc1OC(C)=O [compound 4, O,O′- Diacetylcurcumin] | significantly inhibited the growth | 9 | 9 | 6 | 6 | 6 | 6 | 6 | 6 | 6 | 6 | 6 | 6 | 6 | 6 | 6 | 6 | 6 | 6 | 6 | zone of inhibition at 100 mg/mL [11]: 6 mm; zone of inhibition at 150 mg/mL [11]: 6 mm; zone of inhibition at 100000 µg/disc [12]: 6 mm; zone of inhibition at 150000 µg/disc [12]: 6 mm; zone of inhibition at 100 mg/mL [13]: 6 mm; zone of inhibition at 150 mg/mL [13]: 6 mm; zone of inhibition at 100 mg/mL [14]: 6 mm; zone of inhibition at 150 mg/mL [14]: 6 mm; zone of inhibition at 100 mg/mL [15]: 6 mm; zone of inhibition at 150 mg/mL [15]: 6 mm
COc1cc(/C=C/C(=O)CC(=O)/C=C/c2ccc(O)c(OC)c2)ccc1O [compound 1, Curcumin] | significantly inhibited the growth | 10 | 10 | 6 | 6 | 11 | 6 | 6 | 6 | 6 | 6 | 6 | 6 | 6 | 6 | 6 | 10 | 10 | 10 | 10 | zone of inhibition ([3]; Proteus species, at both concentrations of 100 mg and 150 mg): 11 mm; zone of inhibition ([9]; concentration not given): 10 mm; inhibition of growth ([10]; Plesiomonas species): inhibited; zone of inhibition at 100 mg/mL [11]: 6 mm; zone of inhibition at 150 mg/mL [11]: 6 mm; inhibition of growth [12]: inhibited the growth; zone of inhibition at 100000 µg/disc [12]: 10 mm; zone of inhibition at 150000 µg/disc [12]: 6 mm; zone of inhibition at 100 mg/mL [13]: 6 mm; zone of inhibition at 150 mg/mL [13]: 6 mm; zone of inhibition at 100 mg/mL [14]: 6 mm; zone of inhibition at 150 mg/mL [14]: 6 mm; zone of inhibition at 100 mg/mL [15]: 6 mm; zone of inhibition at 150 mg/mL [15]: 6 mm
COc1cc(/C=C/C(=O)COC(=O)/C=C/c2ccc(OC(C)=O)c(OC)c2)ccc1OC(C)=O [compound 6, O,O′- Diacetylcalebin-A] | significantly inhibited the growth | 8 | 8 | 6 | 6 | 6 | 6 | 6 | 7 | 7 | 6 | 6 | 6 | 6 | 6 | 6 | 6 | 6 | 6 | 6 | inhibition of growth [5]: inhibited; zone of inhibition at 100 mg/mL [11]: 6 mm; zone of inhibition at 150 mg/mL [11]: 6 mm; zone of inhibition at 100000 µg/disc [12]: 6 mm; zone of inhibition at 150000 µg/disc [12]: 6 mm; zone of inhibition at 100 mg/mL [13]: 6 mm; zone of inhibition at 150 mg/mL [13]: 6 mm; zone of inhibition at 100 mg/mL [14]: 6 mm; zone of inhibition at 150 mg/mL [14]: 6 mm; zone of inhibition at 100 mg/mL [15]: 6 mm; zone of inhibition at 150 mg/mL [15]: 6 mm
